The test system of this test is Liver ApoB mRNA. Description: Liver ApoB mRNA knockdown by 1:57 SNALP containing cationic lipid and ApoB siRNA in mice (branched DNA QuantiGene assay). Particulars: Balb/c mice; for ApoB knockdown relative to PBS control (%): 1:57 SNALP containing the cationic lipid with ApoB siRNA, liver ApoB:GAPD mRNA, 48 h, n = 3; for ApoB silencing activity compared to a SNALP formulation containing the C2K benchmark cationic lipid: 1:57 SNALP with ApoB siRNA, administered at the same dose as C2K SNALP. The class given is in vivo. The text has this: In some embodiments, siRNA molecules were encapsulated into serum-stable nucleic acid-lipid particles (SNALP) composed of the following lipids: (1) the lipid conjugate PEG2000-C-DMA (3-N-[(-methoxypoly(ethylene glycol)2000)carbamoyl]-1,2-dimyristyloxypropylamine); (2) one or more cationic lipids or salts thereof (e.g., cationic lipids of Formula I of the invention and/or other cationic lipids described herein); (3) the phospholipid DPPC (1,2-dipalmitoyl-sn-glycero-3-phosphocholine) (Avanti Polar Lipids; Alabaster, Ala.); and (4) synthetic cholesterol (Sigma-Aldrich Corp.; St. Louis, Mo.) in the molar ratio 1.4:57.1:7.1:34.3, respectively. In other words, siRNA molecules were encapsulated into SNALP of the following “1:57” formulation: 1.4% PEG2000-C-DMA; 57.1% cationic lipid; 7.1% DPPC; and 34.3% cholesterol. It should be understood that the 1:57 formulation is a target formulation, and that the amount of lipid (both cationic and non-cationic) present and the amount of lipid conjugate present in the formulation may vary. Typically, in the 1:57 formulation, the amount of cationic lipid will be 57.1 mol %±5 mol %, and the amount of lipid conjugate will be 1.4 mol %±0.5 mol %, with the balance of the 1:57 formulation being made up of non-cationic lipid (e.g., phospholipid, cholesterol, or a mixture of the two).
SNALP formulations were administered by IV injection at 0.033 mg/kg or at 0.05 mg/kg into Balb/c mice (n=3 per group). Liver ApoB mRNA levels were evaluated at 48 hours after SNALP administration by a branched DNA assay (QuantiGene assay) to assess ApoB mRNA relative to the housekeeping gene GAPDH.

`CCCCC/C=C\C/C=C\CCCCCCCCC(CCCCCCCC/C=C\C/C=C\CCCCC)OC(=O)N(C)CCN(C)C` [Compound 11, MC2MC]: the “ApoB knockdown relative to PBS control (%)” value (IV 0.05 mg/kg) is recorded as −54%.

Turning to `CCCCC/C=C\C/C=C\CCCCCCCCC(CCCCCCCC/C=C\C/C=C\CCCCC)OC(=O)N(C)CCCN(C)CC` [Compound 30, (6Z,9Z,28Z,31Z)-heptatriaconta-6,9,28,31-tetraen-19-yl (3-(ethyl(methyl)amino)propyl)(methyl)carbamate], for the setting “IV 0.05 mg/kg”, the “ApoB knockdown relative to PBS control (%)” value was −65%. Consider `CCCCC/C=C\C/C=C\CCCCCCCCC(CCCCCCCC/C=C\C/C=C\CCCCC)OC(=O)N(C)CCCN(CC)CC` [Compound 31, (6Z,9Z,28Z,31Z)-heptatriaconta-6,9,28,31-tetraen-19-yl (3-(diethylamino)propyl)(methyl)carbamate], for which the “ApoB knockdown relative to PBS control (%)” value (IV 0.05 mg/kg) is listed as −62%.

`CCCCC/C=C\C/C=C\CCCCCCCCCC(CCCCCCC/C=C\C/C=C\CCCCC)OC(=O)N(CC)CCN(C)C` (centres unmarked) [Compound 29, (6Z,9Z,28Z,31Z)-heptatriaconta-6,9,28,31-tetraen-18-yl 2-(dimethylamino)ethyl(ethyl)carbamate]: the “ApoB knockdown relative to PBS control (%)” value (IV 0.05 mg/kg) is −59%. In the case of `CCCCC/C=C\C/C=C\CCCCCCCCCC(CCCCCCC/C=C\C/C=C\CCCCC)OC(=O)N(CCCCCC)CCCN(C)C` (centres unmarked) [Compound 27, (6Z,9Z,28Z,31Z)-heptatriaconta-6,9,28,31-tetraen-18-yl 3-(dimethylamino)propyl(hexyl)carbamate], the “ApoB silencing activity compared to a SNALP formulation containing the C2K benchmark cationic lipid” value was “unexpectedly improved ApoB silencing activity”. Also, for the setting “IV 0.033 mg/kg”, the “ApoB knockdown relative to PBS control (%)” value is listed as −66%. For `CCCCC/C=C\C/C=C\C/C=C\CCCCCC(CCCCC/C=C\C/C=C\C/C=C\CCCCC)OC(=O)CCCN(C)C` [Compound 8, γ-LenMC3] the same measures were “unexpectedly improved ApoB silencing activity” and −71%. For `CC/C=C\CCCN(CCCN(C)C)C(=O)OC(CCCCCCC/C=C\C/C=C\CCCCC)CCCCCCCCC/C=C\C/C=C\CCCCC` (centres unmarked) [Compound 28, (6Z,9Z,28Z,31Z)-heptatriaconta-6,9,28,31-tetraen-18-yl 3-(dimethylamino)propyl((Z)-hept-4-enyl)carbamate] the same measures were “unexpectedly improved ApoB silencing activity” and −68%.

For the compound `CCCCCC/C=C/C=C\CCCCCCCCC(CCCCCCCC/C=C\C=C\CCCCCC)OCCCN(C)C` [Compound 41, 3-((7E,9Z,28Z,30E)-heptatriaconta-7,9,28,30-tetraen-19-yloxy)-N,N-dimethylpropan-1-amine], the “ApoB knockdown relative to PBS control (%)” value (IV 0.033 mg/kg) is −52%.

Consider `CCCCC/C=C\C/C=C\CCCCCCCCC(CCCCCCCC/C=C\C/C=C\CCCCC)OCCCN(C)C` [Compound 13, 3-((6Z,9Z,28Z,31Z)-heptatriaconta-6,9,28,31-tetraen-19-yloxy)-N,N-dimethylpropan-1-amine], for which the “ApoB silencing activity compared to a SNALP formulation containing the C2K benchmark cationic lipid” value is “unexpectedly improved ApoB silencing activity”. For the same compound, where the note is “IV 0.033 mg/kg”, the “ApoB knockdown relative to PBS control (%)” value is on record as −69%. Consider `CCCCC/C=C\C/C=C\CCCCCCCCC(CCCCCCCC/C=C\C/C=C\CCCCC)OCCCCN(C)C` [Compound 15, MC4 Ether], for which the “ApoB silencing activity compared to a SNALP formulation containing the C2K benchmark cationic lipid” value is listed as “unexpectedly improved ApoB silencing activity”. Further, the “ApoB knockdown relative to PBS control (%)” value (IV 0.05 mg/kg) was −77%. Regarding `CC(C)CCCC(C)CCCC(C)CCCC(C)CCC(CCC(C)CCCC(C)CCCC(C)CCCC(C)C)OC(=O)CCCN(C)C` (centres unmarked) [Compound 17, Phytanyl-MC3], under “IV 0.05 mg/kg”, the “ApoB knockdown relative to PBS control (%)” value is listed as −14%. For `CCCCC/C=C\C/C=C\CCCCCCCCC(CCCCCCCC/C=C\C/C=C\CCCCC)SC(=O)CCCN(C)C` [Compound 20, S-(6Z,9Z,28Z,31Z)-heptatriaconta-6,9,28,31-tetraen-19-yl 4 (dimethylamino) butanethioate], where the note is “IV 0.05 mg/kg”, the “ApoB knockdown relative to PBS control (%)” value was −50%. On to `CC/C=C\C/C=C\C/C=C\CCCCCCCCC(CCCCCCCC/C=C\C/C=C\C/C=C\CC)OCCCN(C)C` [Compound 34, 3-((3Z,6Z,9Z,28Z,31Z,34Z)-heptatriaconta-3,6,9,28,31,34-hexaen-19-yloxy)-N,N-dimethylpropan-1-amine], for which the “ApoB knockdown relative to PBS control (%)” value (IV 0.033 mg/kg) is −41%. Same read-out and setting: the result for `CCCCC/C=C\C/C=C\CCCCCCCC(O)C(CCCCCCC/C=C\C/C=C\CCCCC)OC(=O)CCN(C)C` (centres unmarked) [Compound 22, (6Z,9Z,27Z,30Z)-19-hydroxyhexatriaconta-6,9,27,30-tetraen-18-yl 3-(dimethylamino)propanoate] reads −30%. Still for that read-out and setting: the result for `CCCCC/C=C\C/C=C\CCCCCCCC(=O)C(CCCCCCC/C=C\C/C=C\CCCCC)OC(=O)CCCN(C)C` (centres unmarked) [Compound 23, (6Z,9Z,27Z,30Z)-19-oxohexatriaconta-6,9,27,30-tetraen-18-yl 4-(dimethylamino)butanoate] reads −33%.

Turning to `CCCCC/C=C\C/C=C\CCCCCCCCC(CCCCCCCC/C=C/C/C=C/CCCCC)OC(=O)CCCN(C)C` (centres unmarked) [Compound 25, (6Z,9Z,28E,31E)-heptatriaconta-6,9,28,31-tetraen-19-yl 4-(dimethylamino)butanoate], the “ApoB knockdown relative to PBS control (%)” value (IV 0.05 mg/kg) is −66%. As for `CCCCC/C=C\C/C=C\CCCCCCCCC1(CCCCCCCC/C=C\C/C=C\CCCCC)OCC(CCN(C)C)O1` (centres unmarked) [Compound C2K, 2,2-dilinoleyl-4-(2-dimethylaminoethyl)-[1,3]-dioxolane, reference compound], the “ApoB knockdown relative to PBS control (%)” value reads like this: (IV 0.033 mg/kg) −51%; (IV 0.05 mg/kg) −66%. `CCC/C=C\C/C=C\CCCCCCCCC(CCCCCCCC/C=C\C/C=C\CCCCC)OC(=O)N(C)CCCN(C)C` (centres unmarked) [Compound 10, MC3MC]: the “ApoB knockdown relative to PBS control (%)” value (IV 0.033 mg/kg) was −50%. With `CCCCCC1CC1CC1CC1CC1CC1CCCCCC(CCCCCC1CC1CC1CC1CC1CC1CCCCC)OC(=O)CCCN(C)C` (centres unmarked) [Compound 9, CP-γ-LenMC3], under “IV 0.033 mg/kg”, the “ApoB knockdown relative to PBS control (%)” value is −54%. Take `CC(C)CCCC(C)CCCC(C)CCCC(C)CCC(CCC(C)CCCC(C)CCCC(C)CCCC(C)C)OC(=O)CCCCN(C)C` (centres unmarked) [Compound 18, Phytanyl-MC4]: the “ApoB knockdown relative to PBS control (%)” value (IV 0.05 mg/kg) is listed as −46%. Consider `CCC1CC1CC1CC1CC1CC1CCCCCCCCC(CCCCCCCCC1CC1CC1CC1CC1CC1CC)OC(=O)CCCN(C)C` (centres unmarked) [Compound 5], for which, under “IV 0.033 mg/kg”, the “ApoB knockdown relative to PBS control (%)” value is −56%. As to `CCCCC/C=C/C/C=C/CCCCCCCCC(CCCCCCCC/C=C/C/C=C/CCCCC)OC(=O)CCCN(C)C` [Compound 40, (6E,9E,28E,31E)-heptatriaconta-6,9,28,31-tetraen-19-yl 4-(dimethylamino)butanoate], the “ApoB knockdown relative to PBS control (%)” value (IV 0.05 mg/kg) is listed as −58%. Regarding `CC/C=C\C/C=C\C/C=C\CCCCCCCCC(CCCCCCCC/C=C\C/C=C\C/C=C\CC)OC(=O)CCCN(C)C` [Compound 4, LenMC3], the “ApoB silencing activity compared to a SNALP formulation containing the C2K benchmark cationic lipid” value was “unexpectedly improved ApoB silencing activity”. For the same compound, under “IV 0.033 mg/kg”, the “ApoB knockdown relative to PBS control (%)” value is −78%.

`CCCCC/C=C\C/C=C\CCCCCCCCC(CCCCCCCC/C=C\C/C=C\CCCCC)OC(=O)CCCN(C)C` [Compound 1, (6Z,9Z,28Z,31Z)-heptatriaconta-6,9,28,31-tetraen-19-yl 4-(dimethylamino)butanoate]: the “ApoB silencing activity compared to a SNALP formulation containing the C2K benchmark cationic lipid” value was “unexpectedly improved ApoB silencing activity”. Further, the “ApoB knockdown relative to PBS control (%)” value (IV 0.033 mg/kg) is on record as −71%. In addition, where the note is “IV 0.05 mg/kg”, the “ApoB knockdown relative to PBS control (%)” value was −81%. Take `CC/C=C\C/C=C\C/C=C\CCCCCCCCC(CCCCCCCC/C=C\C/C=C\C/C=C\CC)OCCCCN(C)C` [Compound 35, 4-((3Z,6Z,9Z,28Z,31Z,34Z)-heptatriaconta-3,6,9,28,31,34-hexaen-19-yloxy)-N,N-dimethylbutan-1-amine]: the “ApoB silencing activity compared to a SNALP formulation containing the C2K benchmark cationic lipid” value is given as “unexpectedly improved ApoB silencing activity”. Besides, the “ApoB knockdown relative to PBS control (%)” value (IV 0.033 mg/kg) is recorded as −78%.

Values taken from patent US20170151333A1, “NOVEL CATIONIC LIPIDS AND METHODS OF USE THEREOF” (PROTIVA BIOTHERAPEUTICS, INC., priority 2010, published 2017).
